Reference: US8410150B2, “Inhibitors of carnitine palmitoyltransferase and treating cancer” (University Health Network, priority 2007, dated 2013)
Structures can show the parent of a compound that is named as a salt.

Experiments:
A54 = test: Cell growth inhibition, SRB assay; format: cell-based, human; conditions: Lung A54, 3% FBS
Protocol: (§1) Compounds were dissolved in DMSO and further diluted in cell culture medium for the experiments performed. Cells were seeded into 96-well plates with 1,500-5,000 cells/well according to cell growth rate. After 24 h, DMEM medium containing 10% FBS were changed to DMEM containing 3% FBS for cancer cells and additional 3% FBS were added into the culture medium for normal cells. The compound was added into the cell culture at the indicated concentrations, and the final concentration of DMSO was adjusted to a final concentration of 0.1%. Cells were subjected to either normoxic condition (20% O2) for 6 days or hypoxic condition (0.2% O2) for 2 days and then transferred to normoxic condition for 4 days. Cell viability was assessed by Sulforhodamine B (SRB) assay at Day 6.
(§2) Sulforhodamine B (SRB) (Sigma, Oakville, ON, Canada) is a water-soluble dye that binds to the basic amino acids of the cellular proteins. Thus, colorimetric measurement of the bound dye provides an estimate of the total protein mass that is related to the cell number. The cells were fixed in situ by gently aspirating off the culture media and adding 50 ul of cold 10% trichloroacetic Acid (TCA) per well and incubated at 4° C. for 30-60 min. The plates were washed five times with water and allowed to air dry for 5 min. 50 ul of 0.4% (w/v) SRB dissolved in 1% (v/v) acetic acid were added into each well, plates were then incubated at RT for 30 min for staining, washed four times with 1% acetic acid to remove any unbound dye and then allowed to air dry for 5 min. Stain was solubilized with 100 ul of 10 mM Tris pH 10.5 per well. Absorbance was read at 570 nm on a spectrophotometer. GI50 (compound concentration required for 50% of growth inhibition) was calculated using GraphPad Prism 4.0 software (GraphPad Software, Inc., San Diego, Calif., USA).
(§3) Cell viability of various cell lines treated with 3-carboxy-N,N,N-trimethyl-2-pentadecanamidopropan-1-aminium (“nPAC”) and compound of Examples S7, S63, S66, S90, S89, S67, S75 and S10 was also assessed in a manner as described above in Example 5.

MDA-231 = test: Cell growth inhibition, SRB assay; format: cell-based, human; conditions: Breast MDA-231, 3% FBS
Protocol: as §1, §2, §3

SW620 = test: Cell growth inhibition, SRB assay; format: cell-based, human; conditions: Colon SW620, 3% FBS
Protocol: as §1, §2, §3

HCT-15 = test: Cell growth inhibition, SRB assay; format: cell-based, human; conditions: Colon HCT-15, 3% FBS
Protocol: as §1, §2, §3

Caov-3 = test: Cell growth inhibition, SRB assay; format: cell-based, human; conditions: Ovarian Caov-3, 3% FBS
Protocol: as §1, §2, §3

Hs578T = test: Cell growth inhibition, SRB assay; format: cell-based, human; conditions: Breast Hs578T, 3% FBS
Protocol: as §1, §2, §3

SW480 = test: Cell growth inhibition, SRB assay; format: cell-based, human; conditions: Colon SW480, 3% FBS
Protocol: as §1, §2, §3

COLO-205 = test: Cell growth inhibition, SRB assay; format: cell-based, human; conditions: Colon COLO-205, 3% FBS
Protocol: as §1, §2, §3

H358 = test: Cell growth inhibition, SRB assay; format: cell-based, human; conditions: Lung H358, 3% FBS; read-out: GI50
Protocol: (§4) Human cancer cells (MCF-7, H358, H460, HCT116 p53^+/+, HCT116 p53^−/−, A172, PC-3, DU-145 and SW626) were maintained in DMEM medium containing 10% Fetal Bovine Serum (FBS) (Invitrogen, Burlington, ON, Canada) and normal cells HMEC, 184A1, NHBE and PrEC were cultured in MEGM, MEGM plus transferring and cholera toxin, BEGM and PrEGM supplemented with various growth factors (Cambrex, Charles city, IA, USA), respectively.
as §1, §2, §3

A172 = test: Cell growth inhibition, SRB assay; format: cell-based, human; conditions: Brain A172, 3% FBS; read-out: GI50
Protocol: as §4, §1, §2, §3

SW626 = test: Cell growth inhibition, SRB assay; format: cell-based, human; conditions: Ovarian SW626, 3% FBS; read-out: GI50
Protocol: as §4, §1, §2, §3

PC-3 = test: Cell growth inhibition, SRB assay; format: cell-based, human; conditions: Prostate PC-3, 3% FBS; read-out: GI50
Protocol: as §4, §1, §2, §3

MCF-7 = test: Cell growth inhibition, SRB assay; format: cell-based, human; conditions: Breast MCF-7, 3% FBS; read-out: GI50
Protocol: as §4, §1, §2, §3

human CPT1A = target: T1, human CPT1A (Homo sapiens, UniProt P50416); test: Human CPT1A LC/MS assay; format: biochemical; conditions: human CPT1A LC/MS assay, dose response format
T1 construct: made in house; host or cells: Saccharomyces cerevisiae (pESC-trp) or cultured mammalian cells (pCDNA3.1); mitochondrial extract
T1 sequence (P50416 1-773): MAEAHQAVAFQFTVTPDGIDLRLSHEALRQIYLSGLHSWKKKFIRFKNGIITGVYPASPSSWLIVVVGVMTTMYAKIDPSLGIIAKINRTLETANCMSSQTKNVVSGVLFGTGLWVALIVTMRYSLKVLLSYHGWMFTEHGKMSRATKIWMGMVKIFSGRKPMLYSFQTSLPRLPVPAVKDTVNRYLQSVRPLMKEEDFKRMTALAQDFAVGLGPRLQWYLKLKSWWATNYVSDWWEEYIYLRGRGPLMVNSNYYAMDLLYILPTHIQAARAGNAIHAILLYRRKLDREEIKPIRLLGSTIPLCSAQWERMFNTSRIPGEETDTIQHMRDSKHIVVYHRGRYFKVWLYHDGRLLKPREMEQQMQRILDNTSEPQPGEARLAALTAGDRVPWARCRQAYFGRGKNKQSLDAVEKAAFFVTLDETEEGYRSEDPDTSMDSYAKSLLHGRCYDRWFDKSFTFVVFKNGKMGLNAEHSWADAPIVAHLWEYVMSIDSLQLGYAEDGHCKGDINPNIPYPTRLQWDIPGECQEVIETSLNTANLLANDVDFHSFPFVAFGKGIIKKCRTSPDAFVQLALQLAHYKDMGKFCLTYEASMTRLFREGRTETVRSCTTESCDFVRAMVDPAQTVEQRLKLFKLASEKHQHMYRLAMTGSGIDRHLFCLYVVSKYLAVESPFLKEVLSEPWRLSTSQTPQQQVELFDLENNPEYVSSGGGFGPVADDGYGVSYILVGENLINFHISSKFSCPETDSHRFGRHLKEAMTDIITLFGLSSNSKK
How it was run: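 Mitochondrial extracts (1.6 μg protein) expressing human CPT1A, preincubated 10 min with compound in 20% DMSO, then reacted 10 min at room temperature with 20 μM palmitoyl-CoA, 50 μM L-carnitine (pH 7.5). Palmitoyl carnitine was quantified by LC/MS against a myristoyl carnitine standard; 16-point, 2-fold titrations gave dose response.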

3-carboxy-N,N,N-trimethyl-2-pentadecanamidopropan-1-aminium [nPAC, reference compound]
GI50 (A54): 20 µM | GI50 (MDA-231): 10 µM | GI50 (SW620): 0.5 µM | GI50 (HCT-15): 1.5 µM | GI50 (Caov-3): 1.3 µM | GI50 (Hs578T): 19 µM | GI50 (SW480): 0.4 µM | GI50 (COLO-205): 0.4 µM | GI50 (H358): 0.7 µM | GI50 (A172): 3.2 µM | GI50 (SW626): 1.2 µM | GI50 (PC-3): 2.5 µM | GI50 (MCF-7): 6.6 µM

C[N+](C)(C)C[C@@H](CC(=O)O)NC(=O)c1ccc(-c2cccs2)s1 [Example S44, (R)-3-(2,2′-bithiophene-5-carboxamido)-4-(trimethylammonio)butanoate]
IC50 (human CPT1A): 100 to 1000 µM

C[N+](C)(C)C[C@@H](CC(=O)O)NC(=O)c1ccc(C#Cc2ccccc2)cc1 [Example S62, (R)-3-(4-(phenylethynyl)benzamido)-4-(trimethylammonio)butanoate 2,2,2-trifluoroacetate]
IC50 (human CPT1A): 10 to 100 µM

C[N+](C)(C)C[C@@H](CC(=O)O)NC(=O)c1ccc(Br)s1 [Example S95, (R)-2-(5-bromothiophene-2-carboxamido)-3-carboxy-N,N,N-trimethyl-propan-1-aminium trifluoroacetate]
IC50 (human CPT1A): 10 to 100 µM

CCCCCCOc1cccc(CCc2ccc(C(=O)N[C@H](CC(=O)O)C[N+](C)(C)C)o2)c1 [Example S125, (R)-3-carboxy-2-(5-(3-(hexyloxy)phenethyl)furan-2-carboxamido)-N,N,N-trimethylpropan-1-aminium 2,2,2-trifluoroacetate]
IC50 (human CPT1A): ≤ 1 µM

CCCCCc1ccc(CCc2ccc(S(=O)(=O)N[C@H](CC(=O)O)C[N+](C)(C)C)s2)cc1 [Example S83, (R)-3-carboxy-N,N,N-trimethyl-2-(5-(4-pentylphenethyl)thiophene-2-sulfonamido)propan-1-aminium 2,2,2-trifluoroacetate]
IC50 (human CPT1A): 1 to 10 µM

CCOc1ccc(OCc2ccc(C(=O)N[C@H](CC(=O)[O-])C[N+](C)(C)C)o2)cc1 [Example S68, (R)-3-(5-((4-ethoxyphenoxy)methyl)furan-2-carboxamido)-4-(trimethyl-ammonio)butanoate]
IC50 (human CPT1A): ≤ 1 µM

C[N+](C)(C)C[C@@H](CC(=O)O)NC(=O)c1ccc(CCc2ccccc2)o1 [Example S42, (R)-3-(5-phenethylfuran-2-carboxamido)-4-(trimethylammonio)-butanoate]
IC50 (human CPT1A): ≤ 1 µM
